Here are results for eleven molecules from PubChem BioAssay (NCI).

Among the test systems are OVCAR-3 ovarian; ACHN renal; COLO 205 colon; UACC-257 melanoma; HT29 colon; K-562 leukemia; SNB-75 CNS; MDA-N; MCF7 breast; DU-145 prostate; SF-268 CNS; SK-MEL-2 melanoma.
Holding throughout (test): NCI tumour cell line growth inhibition, 48 h

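Assay format: 96-well plates, 48-hour exposure. The concentration for full growth arrest is given as TGI.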 Where a SMILES comes first, the peptide text is derived from it. [ ]: non-standard residue; d: D form. The star is where a group is joined. ξ: configuration not given here. ξD = NC(CC(=O)O)C(=O)O; Boc = CC(C)(C)OC(=O)*; Aib = CC(C)(N)C(=O)O; OBn = c1ccc(CO*)cc1

Turning to `C/C(=N\O)c1ccc(OCc2cc(C(F)(F)F)cc(C(F)(F)F)c2)cc1`, the TGI with OVCAR-3 ovarian, in the experiment with ACHN renal, with COLO 205 colon, with UACC-257 melanoma, with HT29 colon and in the experiment with K-562 leukemia was above 100 µM throughout. Besides, the TGI in the experiment with SNB-75 CNS, with MDA-N, in the experiment with MCF7 breast, in the experiment on DU-145 prostate, with SF-268 CNS and with SK-MEL-2 melanoma was above 100 µM each time.

For the molecule `CC1(C)CN(CC(=O)O)CC(Cc2ccc(OCC(=O)O)cc2)N(CC(=O)O)CC(C)(C)SS1` (configuration not stated), the TGI with OVCAR-3 ovarian, with ACHN renal, in the experiment on COLO 205 colon, in the experiment on UACC-257 melanoma, in the experiment on HT29 colon and with K-562 leukemia was above 100 µM each time. In addition, the TGI in the experiment on SNB-75 CNS, in the experiment with MDA-N, in the experiment on MCF7 breast, in the experiment with DU-145 prostate, in the experiment with SF-268 CNS and in the experiment with SK-MEL-2 melanoma was above 100 µM in each case.

For `COC(=O)CN(CC(=O)NCCNC(=O)OC(C)(C)C)C1CCCCC1N(CC(=O)OC)CC(=O)OC` (configuration not stated), the TGI in the experiment on OVCAR-3 ovarian, with ACHN renal, with COLO 205 colon, in the experiment on UACC-257 melanoma, in the experiment on HT29 colon and with K-562 leukemia was above 100 µM each time. Besides, the TGI in the experiment with MDA-N, with MCF7 breast, with DU-145 prostate, in the experiment on SF-268 CNS and in the experiment with SK-MEL-2 melanoma was above 100 µM in each case.

With `COc1ccccc1NC1Oc2cc3c(cc2C(c2cc(OC)c(OC)c(OC)c2)C1C)OCO3` (configuration not stated), the TGI in the experiment with ACHN renal is above 100 µM; in the experiment on COLO 205 colon, 5.79 µM; with UACC-257 melanoma, above 100 µM; in the experiment with HT29 colon, above 100 µM; in the experiment with K-562 leukemia it was 12.5 µM; in the experiment on SNB-75 CNS, 16.7 µM. Besides, the TGI was 1.82 µM in the experiment on MDA-N; above 100 µM in the experiment with MCF7 breast; above 100 µM in the experiment on DU-145 prostate; above 46.2 µM in the experiment with SF-268 CNS; above 100 µM with SK-MEL-2 melanoma.

Consider `COCN1C(=O)[C@@H]2C[C@@H](O)CN2C(=O)c2ccccc21`, for which the TGI with ACHN renal, with COLO 205 colon, in the experiment with UACC-257 melanoma, in the experiment on HT29 colon, with K-562 leukemia and in the experiment with SNB-75 CNS was above 100 µM in each case. Moreover, the TGI in the experiment with MDA-N, with MCF7 breast, in the experiment with DU-145 prostate, in the experiment with SF-268 CNS and with SK-MEL-2 melanoma was above 100 µM throughout.

For the molecule `O=C(N/C(=C\c1ccccc1)c1nc2ccccc2c(=O)o1)c1ccccc1`, the TGI with OVCAR-3 ovarian was above 100 µM; with ACHN renal, above 100 µM; in the experiment on COLO 205 colon it was above 100 µM; in the experiment with UACC-257 melanoma, above 72.6 µM; in the experiment on HT29 colon, above 100 µM; in the experiment on K-562 leukemia, above 100 µM. The TGI in the experiment on SNB-75 CNS is above 86.3 µM; in the experiment with MDA-N, above 100 µM; with MCF7 breast, above 100 µM; in the experiment with DU-145 prostate, above 100 µM; in the experiment on SF-268 CNS it was above 78.2 µM; in the experiment with SK-MEL-2 melanoma it was above 100 µM.

Turning to `CC(C)(C)OC(=O)NC(CC(=O)OCc1ccccc1)C(=O)NC(C)(C)C(N)=O` (configuration not stated) (Boc-[ξD](OBn)-[Aib]-NH2), the TGI in the experiment on OVCAR-3 ovarian, in the experiment with ACHN renal, with COLO 205 colon, in the experiment on UACC-257 melanoma, in the experiment with HT29 colon and with K-562 leukemia was above 100 µM each time. Moreover, the TGI in the experiment with SNB-75 CNS, with MDA-N, in the experiment with MCF7 breast, in the experiment on DU-145 prostate, in the experiment on SF-268 CNS and in the experiment on SK-MEL-2 melanoma was above 100 µM in each case.

With `CC(=O)Nc1ccc(S(=O)(=O)c2nnc(NC(C)=O)s2)cc1`, the TGI was above 100 µM with OVCAR-3 ovarian; above 100 µM in the experiment on ACHN renal; 0.537 µM in the experiment on COLO 205 colon; above 100 µM in the experiment with UACC-257 melanoma; above 100 µM in the experiment on HT29 colon; above 100 µM in the experiment with K-562 leukemia. Also, the TGI in the experiment on SNB-75 CNS, in the experiment with MDA-N, in the experiment with MCF7 breast, in the experiment on DU-145 prostate, in the experiment on SF-268 CNS and with SK-MEL-2 melanoma was above 100 µM throughout.

`O=C(NCCCCCCCCNC(=O)Nc1cccc2ccccc12)Nc1cccc2ccccc12`: the TGI is above 100 µM in the experiment on OVCAR-3 ovarian; above 100 µM in the experiment on ACHN renal; above 100 µM with COLO 205 colon; above 100 µM in the experiment on UACC-257 melanoma; above 100 µM in the experiment on HT29 colon; 46.7 µM in the experiment on K-562 leukemia. The TGI in the experiment with SNB-75 CNS was above 100 µM; with MDA-N, above 100 µM; in the experiment on MCF7 breast, above 100 µM; with DU-145 prostate, above 100 µM; with SF-268 CNS, 45.8 µM; with SK-MEL-2 melanoma it was above 100 µM.

As to `CCCC(=O)OCC1OC(n2cc(F)c(=O)[nH]c2=O)C(F)C1O` (configuration not stated), the TGI in the experiment on OVCAR-3 ovarian, in the experiment on ACHN renal, in the experiment with COLO 205 colon, in the experiment on UACC-257 melanoma, in the experiment on HT29 colon and in the experiment with K-562 leukemia was above 100 µM in each case. Further, the TGI in the experiment on SNB-75 CNS is above 100 µM; in the experiment with MDA-N, above 100 µM; in the experiment on MCF7 breast, above 100 µM; in the experiment with DU-145 prostate it was above 67.1 µM; with SF-268 CNS, above 100 µM; with SK-MEL-2 melanoma, above 100 µM.

As for `NCCCN(CCCCN(CCCN)Cc1ccccc1)Cc1ccccc1`, the TGI with ACHN renal was above 100 µM; in the experiment with COLO 205 colon, above 100 µM; in the experiment with UACC-257 melanoma, above 100 µM; in the experiment with HT29 colon, 44.1 µM; in the experiment with K-562 leukemia it was above 100 µM; in the experiment with SNB-75 CNS, 37.6 µM. The TGI with MDA-N was 33.1 µM; in the experiment on MCF7 breast, 60.5 µM; with DU-145 prostate, above 100 µM; in the experiment with SF-268 CNS it was 37.1 µM.
